Laboratory results as given in patent US20050220906A1, “Pharmaceutical composition for treating rheumatism and the preparation thereof” (priority 2002, published 2005).

Tests used:
IL-6 = IL-6 of spleen cells from dosed mice (MH60 cells); assay type: in vivo, NIH mice; conditions: 0.02 g/kg, 10 days
Experimental: 70 NIH mice, 18-22 g weight, half male and half female, were divided into 7 groups at random. All the groups were drenched with the correspondent medicines (fengshiping and the other medicines). The medicines were drenched once a day for 10 days. 24 hours after the last administration, all the mice were killed and sampled the macrophage and spleen cells from the abdominal carvity. The IL-1 and IL-6 in the samples were measured.
The spleen cells were sampled in the asepsis condition. Then the samples were washed by the Hank's liquor for 2 times and nonserum RPMI1640 liquor for 1 time. Then the clear samples were adjusted to the 2×10^6/ml cell suspension with 5% FCS-RPMI liquor. 1 ml of the suspension was added to the round-bottom centrifuge tube. After adding the ConA (10 ng/ml), the samples were cultured in the 5% CO2 at 37° C. for 72 hour.
The MH60 cells, which grew depending on the IL-6 and were on the logarithmic growth stage, were adjusted to the 1×10^5/ml cell suspension with the 5% FC-RPMI1640.
The 96-hole flat bottom cell culturing batten was added with the MH60 cell suspension on the quantity of 100 μl/hole and the culturing supernate 25 μl/hole. Then the fluid in each hole was adjusted to the 200 μl with the 5% FCS-RPMI 1640. […] And then they were measured the OD at the wavelength 570 nm and 630 nm. […]

CD4, CD8 cells = assay: CD4 and CD8 cells of the spleen; assay type: in vivo, ICR mice; conditions: 0.02 g/kg
Experimental: The experiment was same to 5.1. 24 hours after the last administration, the spleen cell samples were made into the 2×10^8/ml cell suspension with 5% FCS-RPIM1640. The quantity of CD4, CD8, NK cells and the rate CD4/CD8 were measured on the usural method.
The spleen cell suspension 50 μl was added on the glass to made the cell smear. The glass had been coated by the polylysine. The T cell of the mouse was set as the positive control sample. The cell smear was enveloped by the serum of the normal mouse after it was fixed by the acetone. Then the enveloped sample was added with the antibody of CD4 and CD8 which were marked by the hominine biotin. It was incubated at 37° C. for 2 hours. Then the sample was added with the avidin labeled by enzyme and put still for 10 min. After added with the substrate for 10 min, the mixed sample was washed and dyed with the hematoxylin for 2 min. Then the sample was dyhidrated with the grade-alcohol and enveloped with gelatin-glycetrol. 200 cells in the smear were chosen as the research target under the high power microscope. [formula]

hemolysin antibody [1] = assay: Hemolysin antibody caused by chick RBC, NIH mouse; assay type: in vivo; conditions: 0.02 g/kg, 0˜7
Experimental: (§1) 190 mice, 18-22 g weight, half male and half female, were divided into 19 groups. Each mouse was immunized with 5% CRBC solution 0.2 ml. The Fengshiping solutions were drenched at the different times. 7 days after the immunization, all the mice were sampled the blood from the eyes. Then the blood samples were diluted and measured the level of the hemolysin antibody.

TNF α = TNF α level of cultured cells from dosed mice; assay type: in vivo, ICR mice; conditions: 0.02 g/kg, 10 days
Experimental: 60 ICR mice, 1822 g, half male and half female, were divided into 6 groups at random. Each group was drenched of the correspondent medicines including the different dosages of Fengshiping and the other medicines. The medicines were administrated once a day for 10 days. 24 hours after the last administration, the mice were sampled the macrophage and spleen cells from the abdominal cavity in the aseptic condition. The samples were washed with Hank's liquor for 2 times and non-serum RPIM 1640 liquor for 1 time. Then the washed samples were diluted to the suspension with the 5% FCS-RPMI 1640 at the concentration of 2×10^8/ml. Then the suspensions were added with 10 ng/ml LPS or the 10 ng/ml ConA and cultured in the 5% CO2 condition for 48 hours at 37° C. Then the cultured suspension were measured the TNF α and IL-2 levels on the usual methods.
The batten was coated by mouse TNF-α monoclonal antibody. The batten was added with the cultured supernate on the dose of 50 μl/hole. Then the batten was put still for 60 minutes at the room temperature. Then the batten was added with biotin antibody mark at 25° C. for 2 hours. Then the enzyme labeled avidin was added into the batten for 30 minutes. […] The mixed liquor was measured the OD value at the wavelength of the 450 nm. The content of the TNF-α (ng/ml) was calculated on the data of OD value by the method of standard curve.

hemolysin antibody [2] = assay: Hemolysin antibody caused by chick RBC, ICR mouse; assay type: in vivo; conditions: 0˜7
Experimental: as §1

spleen cells = assay: Lymphocyte transformation induced by ConA; assay type: in vivo, NIH mice; conditions: 0.02 g/kg
Experimental: 80 NIH mice, half male and half female, were divided into 8 groups randomly and drenched with the correspondent medicines once a day for 10 days. 24 hours after the last administration, all the mice were killed to sample the spleen cells aseptically. Then the samples were washed by the Hank's liquor for 2 times and nonserum RPMI1640 liquor for 1 time. Then the clear samples were adjusted to the 2×10^6/ml cell suspension with 5% FCS-RPMI liquor. The 96-hole flat bottom cell culturing batten was added with the cell suspension on the quantity of 100 μl/hole. Each sample was cultured with 3 copies. 2 holes were added in 2 ng ConA each as the stimulating reagent. The other hole was not added in the ConA and kept as the control hole. The batten was cultured in 5% CO2 at 37° C. for 72 hours. 14 hours before the end of the culture, each hole was added in 3H-TdR 0.1μ Ci. The cells were harvested by the multihead cell harvesting instrument and measured the cpm value. The average value was adopted as the sample's cpm value. The average value and the stimulating index of the different groups were compared directly. The stimulating index was calculated as following: […]

**Q.** `O=P1(N(CCCl)CCCl)NCCCO1` (stereo not shown) [cyclophosphane] was tested. Which IL-6 (IL-6) did it give?
**A.** 49.6 ± 6.7 IU/ml

**Q.** And the CD4 (CD4, CD8 cells)?
**A.** 11.50 ± 2.50 %

**Q.** And the CD4/CD8 (CD4, CD8 cells)?
**A.** 2.91 ± 0.53

**Q.** And the CD8 (CD4, CD8 cells)?
**A.** 4.10 ± 1.20 %

**Q.** What about the Hemolysin value (hemolysin antibody [1]) of the same molecule?
**A.** 35.0 ± 12.0

**Q.** And the Inhibiting percent (hemolysin antibody [1])?
**A.** 79.3%

**Q.** And the TNF (TNF α)?
**A.** 42.20 ± 9.57 pg/mL

**Q.** And the Hemolysin value (hemolysin antibody [2]; Table 3.2, 0.02 g/kg)?
**A.** 27.80 ± 6.60

**Q.** What about the Inhibiting percent (hemolysin antibody [2]; Table 3.2, 0.02 g/kg) of the same molecule?
**A.** 77.9%

**Q.** What about the Hemolysin value (hemolysin antibody [2]; Table 3.3, 0.02 g/kg) of the same molecule?
**A.** 25.0 ± 4.0

**Q.** What about the Inhibiting percent (hemolysin antibody [2]; Table 3.3, 0.02 g/kg) of the same molecule?
**A.** 90.2%

**Q.** What about the Stimulating index (spleen cells) of the same molecule?
**A.** 13.66 ± 2.28

**Q.** And the cpm (spleen cells)?
**A.** 9922 ± 1145 cpm
